Where a name gives a salt, the structure may show the parent alone.
Target: human PKR1 receptors (Homo sapiens (Human), UniProt Q8TCW9)
Assay: PKR1 antagonist intracellular calcium (FLIPR) assay, block of PK1-mediated calcium release
Type: cell-based
Settings: RBL2H3 cells expressing human PKR1; PK1 at EC80; minimum of two independent assays
Method: Prokineticin receptor 1 (PKR1) antagonists may be functionally assessed by measurement of change in intracellular calcium levels induced by Gq mediated increase in inositol triphosphate (IP3) levels. The ability of a compound to block the intracellular release of calcium mediated by PK1 in RBL2H3 cells expressing human PKR1 receptors is determined as a measure of the compound's antagonist activity in vitro.
Approximately 10,000 cells per assay well are seeded in normal culture medium in a 384 well plate (Corning). Twenty-four hours after seeding, the cells are loaded with a calcium sensitive fluorescent dye by replacing the culture medium with assay buffer (1× Hanks buffered saline, 25 mM HEPES, 0.1% w/v fatty acid free BSA (bovine serum albumin), pH 7.4) containing 1 mM probenecid and 1× Calcium 5 Reagent (Molecular Devices). Cells are incubated at 37° C. for 1 hour to allow for dye uptake.
To test for antagonist activity, test compounds at a final concentration range between 0.32 nM-10 μM (diluted in assay buffer) are added to duplicate assay wells and allowed to incubate for 10 minutes prior to stimulation with PK1. After incubation with test compounds the assay plate is placed in a FLIPR Tetra (Molecular Devices) and PK1 (diluted in assay buffer) is added at the determined EC80 concentration (final). Ligand-dependent changes in intracellular calcium levels are determined by measuring changes in fluorescence of the dye at […] following excitation at 485 nm. […] A minimum of two IC50 values determined from independent assays are generated for each compound.

human PKR1 receptors, sequence (Q8TCW9 whole entry): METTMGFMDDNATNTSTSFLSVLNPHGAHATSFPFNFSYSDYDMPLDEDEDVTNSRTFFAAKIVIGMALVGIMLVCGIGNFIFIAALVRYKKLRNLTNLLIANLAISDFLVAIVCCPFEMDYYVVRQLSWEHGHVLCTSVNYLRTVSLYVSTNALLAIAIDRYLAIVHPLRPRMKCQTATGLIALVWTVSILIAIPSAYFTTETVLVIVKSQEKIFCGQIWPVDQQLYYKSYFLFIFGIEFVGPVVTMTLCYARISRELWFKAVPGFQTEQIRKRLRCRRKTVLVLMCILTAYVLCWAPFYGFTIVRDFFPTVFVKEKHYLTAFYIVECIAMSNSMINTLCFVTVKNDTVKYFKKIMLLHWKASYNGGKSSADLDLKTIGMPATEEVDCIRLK

SMILES | IC50
CC(C)n1c(C2CCCN(C(=O)c3ccnc(N(C)C)c3)C2)nc2ccccc21 (racemic) [Example 1, N,N-Dimethyl-4-{3-[1-(propan-2-yl)-1H-1,3-benzodiazol-2-yl]piperidin-1-carbonyl}pyridin-2-amine (racemic)] | 320 nM
CC(C)n1c(C2CCCN(C(=O)c3ccnc(N(C)C)c3)C2)nc2ccccc21 (single isomer, unassigned; enantiomer 1) [Example 2, N,N-Dimethyl-4-{3-[1-(propan-2-yl)-1H-1,3-benzodiazol-2-yl]piperidine-1-carbonyl}pyridin-2-amine (enantiomer 1)] | 330 nM
CC(C)n1c(C2CCCN(C(=O)c3ccnc(N(C)C)c3)C2)nc2ccccc21 (single isomer, unassigned; enantiomer 2) [Example 3, N,N-Dimethyl-4-{3-[1-(propan-2-yl)-1H-1,3-benzodiazol-2-yl]piperidine-1-carbonyl}pyridin-2-amine (enantiomer 2)] | 9060 nM
CN(C)c1cc(C(=O)N2CCCC(c3nc4ccccc4n3C)C2)ccn1 (stereo not drawn) [Example 4, N,N-Dimethyl-4-[3-(1-methyl-1H-1,3-benzodiazol-2-yl)piperidine-1-carbonyl]pyridin-2-amine] | 1220 nM
CC(C)n1c(C2CCCN(C(=O)c3cnnc(Cl)c3)C2)nc2ccccc21 (stereo not drawn) [Example 5, 2-[1-(6-Chloropyridazine-4-carbonyl)piperidin-3-yl]-1-(propan-2-yl)-1H-1,3-benzodiazole] | 7460 nM
CNc1cc(C(=O)N2CCCC(c3nc4ccccc4n3C(C)C)C2)cnn1 (stereo not drawn) [Example 6, N-Methyl-5-{3-[1-(propan-2-yl)-1H-1,3-benzodiazol-2-yl]piperidine-1-carbonyl}pyridazin-3-amine] | 1740 nM
CCn1cc(C(=O)N2CCCC(c3nc4ccccc4n3C(C)C)C2)cn1 (stereo not drawn) [Example 7, 2-[1-(1-Ethyl-1H-pyrazole-4-carbonyl)piperidin-3-yl]-1-(propan-2-yl)-1H-1,3-benzodiazole] | 1820 nM
CN(C)c1cc(C(=O)N2CCCC(c3cc4ccccc4n3C)C2)ccn1 (stereo not drawn) [Example 8, N,N-Dimethyl-4-[3-(1-methyl-1H-indol-2-yl)piperidine-1-carbonyl]pyridin-2-amine] | 1070 nM
CNc1cc(C(=O)N2CCCC(c3cc4ccccc4n3C)C2)cnn1 (stereo not drawn) [Example 9, N-Methyl-5-[3-(1-methyl-1H-indol-2-yl)piperidine-1-carbonyl]pyridazin-3-amine] | 1080 nM
CCn1c(C2CCCN(C(=O)c3ccnc(N(C)C)c3)C2)cc2ccccc21 (stereo not drawn) [Example 10, 4-[3-(1-Ethyl-1H-indol-2-yl)piperidine-1-carbonyl]-N,N-dimethylpyridin-2-amine] | 390 nM
CCn1c(C2CCCN(C(=O)c3cnnc(N(C)C)c3)C2)cc2ccccc21 (stereo not drawn) [Example 11, 5-[3-(1-Ethyl-1H-indol-2-yl)piperidine-1-carbonyl]-N,N-dimethylpyridazin-3-amine] | 940 nM
CCn1c(C2CCCN(C(=O)c3cnnc(NC)c3)C2)cc2ccccc21 (stereo not drawn) [Example 12, 5-[3-(1-Ethyl-1H-indol-2-yl)piperidine-1-carbonyl]-N-methylpyridazin-3-amine] | 480 nM
CC(C)n1c(C2CCCN(C(=O)c3cnnc(N(C)C)c3)C2)cc2ccccc21 (stereo not drawn) [Example 13, N,N-Dimethyl-5-{3-[1-(propan-2-yl)-1H-indol-2-yl]piperidine-1-carbonyl}pyridazin-3-amine] | 760 nM
CNc1cc(C(=O)N2CCCC(c3cc4ccccc4n3C(C)C)C2)cnn1 (stereo not drawn) [Example 14, N-Methyl-5-{3-[1-(propan-2-yl)-1H-indol-2-yl]piperidine-1-carbonyl}pyridazin-3-amine] | 540 nM
CCn1cc(C(=O)N2CCCC(c3cc4ccccc4n3C(C)C)C2)cn1 (stereo not drawn) [Example 15, 2-{1-[(1-Ethyl-1H-pyrazol-4-yl)carbonyl]piperidin-3-yl}-1-(propan-2-yl)-1H-indole] | 330 nM
CC(C)n1c(C2CCCN(C(=O)c3cn(C)nc3N)C2)cc2ccccc21 (stereo not drawn) [Example 16, 1-Methyl-4-{3-[1-(propan-2-yl)-1H-indol-2-yl]piperidine-carbonyl}-1H-pyrazol-3-amine] | 1440 nM
CCn1cc(C(=O)N2CCCC(c3cc4cc(C)ccc4n3CC)C2)cn1 (stereo not drawn) [Example 17, 1-Ethyl-2-{1-[(1-ethyl-1H-pyrazol-4-yl)carbonyl]piperidin-3-yl}-5-methyl-1H-indole] | 2590 nM
CCn1c(C2CCCN(C(=O)c3cnnc(NC)c3)C2)c(C)c2ccccc21 (stereo not drawn) [Example 18, 5-[3-(1-Ethyl-3-methyl-1H-indol-2-yl)piperidine-1-carbonyl]-N-methylpyridazin-3-amine] | 2170 nM

SMILES | IC50
CCn1c(C2CCCN(C(=O)c3cnnc(NC)c3)C2)cc2cc(C)ccc21 (stereo not drawn) [Example 19, 5-[3-(1-Ethyl-5-methyl-1H-indol-2-yl)piperidine-1-carbonyl]-N-methylpyridazin-3-amine] | 2690 nM
CCn1c(C2CCCN(C(=O)c3cnnc(NC)c3)C2)cc2cc(Cl)ccc21 (stereo not drawn) [Example 20, 5-[3-(5-Chloro-1-ethyl-1H-indol-2-yl)piperidine-1-carbonyl]-N-methylpyridazin-3-amine] | 1250 nM
CCn1c(C2CCCN(C(=O)c3cnnc(N(C)C)c3)C2)cc2cc(C)ccc21 (stereo not drawn) [Example 21, 5-[3-(1-Ethyl-5-methyl-1H-indol-2-yl)piperidine-1-carbonyl]-N,N-dimethylpyridazin-3-amine] | 5340 nM
CCn1c(C2CCCN(C(=O)c3cnnc(N(C)C)c3)C2)cc2cc(Cl)ccc21 (stereo not drawn) [Example 22, 5-[3-(5-Chloro-1-ethyl-1H-indol-2-yl)piperidine-1-carbonyl]-N,N-dimethylpyridazin-3-amine] | 1730 nM
CNc1cc(C(=O)N2CCCC(c3[nH]c4ccccc4c3C)C2)cnn1 (stereo not drawn) [Example 23, N-Methyl-5-[3-(3-methyl-1H-indol-2-yl)piperidine-1-carbonyl]pyridazin-3-amine] | 7410 nM
Cc1c(C2CCCN(C(=O)c3cnnc(N(C)C)c3)C2)[nH]c2ccccc12 (stereo not drawn) [Example 24, N,N-Dimethyl-5-[3-(3-methyl-1H-indol-2-yl)piperidine-1-carbonyl]pyridazin-3-amine] | 7410 nM
CCn1c(C2CCCN(C(=O)c3cn(C)nc3N)C2)c(C)c2ccccc21 (stereo not drawn) [Example 25, 4-[3-(1-Ethyl-3-methyl-1H-indol-2-yl)piperidine-1-carbonyl]-1-methyl-1H-pyrazol-3-amine] | 7860 nM
CCn1c(C2CCCN(C(=O)c3cn(C)nc3N)C2)cc2cc(C)ccc21 (stereo not drawn) [Example 26, 4-[3-(1-Ethyl-5-methyl-1H-indol-2-yl)piperidine-1-carbonyl]-1-methyl-1H-pyrazol-3-amine] | 3120 nM
CCn1c(C2CCCN(C(=O)c3cn(C)nc3N)C2)cc2cc(Cl)ccc21 (stereo not drawn) [Example 27, 4-[3-(5-Chloro-1-ethyl-1H-indol-2-yl)piperidine-1-carbonyl]-1-methyl-1H-pyrazol-3-amine] | 910 nM
Cc1cc(Cl)cnc1C1CCCN(C(=O)c2cnnc(N(C)C)c2)C1 (stereo not drawn) [Example 28, 5-[3-(5-Chloro-3-methylpyridin-2-yl)piperidine-1-carbonyl]-N,N-dimethylpyridazin-3-amine] | 1040 nM
CNc1cc(C(=O)N2CCCC(OC)(c3ncc(Cl)cc3C(F)(F)F)C2)ccn1 (stereo not drawn) [Example 29, 4-{3-[5-Chloro-3-(trifluoromethyl)pyridin-2-yl]-3-methoxypiperidine-1-carbonyl}-N-methylpyridin-2-amine formate] | 480 nM
CNc1cc(C(=O)N2CCCC(OC)(c3ncc(Cl)cc3C(F)(F)F)C2)cnn1 (stereo not drawn) [Example 30, 5-({3-[5-Chloro-3-(trifluoromethyl)pyridin-2-yl]-3-methoxypiperidin-1-yl}carbonyl)-N-methylpyridazin-3-amine] | 2080 nM
COC1(c2ncc(Cl)cc2C(F)(F)F)CCCN(C(=O)c2cnnc(N(C)C)c2)C1 (stereo not drawn) [Example 31, 5-{3-[5-Chloro-3-(trifluoromethyl)pyridin-2-yl]-3-methoxypiperidine-1-carbonyl}-N,N-dimethylpyridazin-3-amine] | 1620 nM
CCn1cc(C(=O)N2CCCC(OC)(c3ncc(Cl)cc3C(F)(F)F)C2)cn1 (stereo not drawn) [Example 32, 5-Chloro-2-[1-(1-ethyl-1H-pyrazole-4-carbonyl)-3-methoxypiperidin-3-yl]-3-(trifluoromethyl)pyridine] | 1880 nM
COC1(c2ncc(Cl)cc2C(F)(F)F)CCCN(C(=O)c2ccnc(N(C)C)c2)C1 (stereo not drawn) [Example 33, 4-{3-[5-Chloro-3-(trifluoromethyl)pyridin-2-yl]-3-methoxypiperidine-1-carbonyl}-N,N-dimethylpyridin-2-amine] | 510 nM
CNc1cc(C(=O)N2CCCC(OC)(c3ncc(Cl)cc3C)C2)ccn1 (stereo not drawn) [Example 34, 4-[3-(5-Chloro-3-methylpyridin-2-yl)-3-methoxypiperidine-1-carbonyl]-N-methylpyridin-2-amine] | 470 nM
CNc1cc(C(=O)N2CCCC(F)(c3ncc(Cl)cc3C)C2)ccn1 (stereo not drawn) [Example 35, 4-[3-(5-Chloro-3-methylpyridin-2-yl)-3-fluoropiperidine-1-carbonyl]-N-methylpyridin-2-amine] | 290 nM
CNc1cc(C(=O)N2CCCC(OC)(c3ncc(Cl)cc3C)C2)cnn1 (stereo not drawn) [Example 36, 5-[3-(5-Chloro-3-methylpyridin-2-yl)-3-methoxypiperidine-1-carbonyl]-N-methylpyridazin-3-amine] | 1490 nM
